Measured values as given in patent US20170333516A1, “PREVENTIVE OR THERAPEUTIC AGENT FOR AGE-RELATED MACULAR DEGENERATION” (JUNTENDO EDUCATIONAL FOUNDATION, priority 2014, published 2017).

Test system: angiogenesis from the choroid plexus
Experiment: Laser-induced angiogenesis from the choroid plexus (AMD model), administration into the vitreous body
Assay type: in vivo, mouse
Settings: for suppressive effect on AMD onset (FIG. 2): figure legend FIG. 2, old mice, administration into vitreous body after laser irradiation
From the text: Laser light (power: 200 mW, exposure time: 0.10 seconds, wavelength: 532 nm) was irradiated in 4 to 5 spots onto male young (8 to 12 weeks) and old (44 to 48 weeks) BLT1^+/+ mice and BLT1^−/− mice, and after 7 days, the eyes were isolated and fixed using a phosphate buffered saline (PBS) containing 4% paraformaldehyde (PFA), the cornea, lens, and retina were removed, and then fixed again using 4% PFA/PBS. The ocular tissue containing the retinal pigment epithelia and choroid plexus were immersed in PBS containing methanol in order of 50%, 75%, 100%, 75%, 50%, and 25% to remove water, and then incubated at 4° C. for 1 hour in a blocking solution (1% bovine blood serum albumin, phosphate buffered saline containing 0.1% Triton X-100), and then stained overnight at 4° C. using isolectin B4 (IB4, […]) labeled with FITC. Incisions were made in the samples and the samples were molded on a slide glass, sealed with a mounting agent containing an antifading reagent, and then a cover glass was placed thereon to produce a flat mount. A three-dimensional IB4 positive blood vessels image was captured using a confocal microscope, and the volume of angiogenesis that occurred in each mouse was measured.
Immediately after laser light irradiation of C57BL/6 background old mice purchased (Japan SLC, wild mice, 40 weeks or older, male), DMSO (final: 0.1%, diluted with PBS), CP105696 (where in the formula (1), R^1=phenyl and R^2=1-carboxycyclopentyl group) which is a BLT1 antagonist, or zileuton, bestatin, or MK886 each of which is an inhibitor for LTB4 production-related enzyme was administered into a vitreous body of each mouse. Similar to Test Example 1, angiogenesis from the choroid plexus was evaluated 7 days after laser irradiation.

## CC(c1cc2ccccc2s1)N(O)C(N)=O (centres unmarked) [zileuton, N-[1-(1-benzothien-2-yl)ethyl]-N-hydroxyurea]
  suppressive effect on AMD onset (FIG. 2): suppressive effect

## O=C(O)C1(c2ccc3c(c2)OC[C@H](Cc2ccc(-c4ccccc4)cc2)[C@H]3O)CCCC1 [CP 105696, 1-[(3S,4R)-4-hydroxy-3-[(4-phenylphenyl)methyl]chroman-7-yl]cyclopentane-1-carboxylic acid]
C57BL/6 background old mice (40 weeks or older, male), administered into vitreous body immediately after laser irradiation, evaluated 7 days after laser irradiation
  angiogenesis volume: significantly reduced in a concentration-dependent manner
  suppressive effect on AMD onset (FIG. 2): suppressive effect

## CC(C)C[C@H](NC(=O)[C@@H](O)[C@H](N)Cc1ccccc1)C(=O)O [bestatin, N-[(2S,3R)-3-amino-2-hydroxy-4-phenylbutyryl]-L-leucine]
  suppressive effect on AMD onset (FIG. 2): suppressive effect

## CC(C)c1ccc2c(c1)c(SC(C)(C)C)c(CC(C)(C)C(=O)O)n2Cc1ccc(Cl)cc1 [MK886]
  suppressive effect on AMD onset (FIG. 2): suppressive effect
